Molecular target: T1, SMYD2 (Homo sapiens, UniProt Q9NRG4)
T1 construct: Full length SMYD2 (NP 064582.2) was cloned; His6 (N, cleaved yes); FLAG (N); made in house; host or cells: Sf9 insect cells
Experiment: SMYD2 Biochemical Assay (3H-SAM, biotinylated peptide substrate, Flashplate)
Conditions: Table 1; average of n = 1 to n = 50; read-out: SMYD2 Biochem IC50
Source text: S-adenosylmethionine (SAM), S-adenosylhomocysteine (SAH), bicine, Tween20, dimethylsulfoxide (DMSO), bovine skin gelatin (BSG), and Tris(2-carboxyethyl)phosphine hydrochloride (TCEP) were purchased from Sigma-Aldrich at the highest level of purity possible. ^3H-SAM was purchase from American Radiolabeled Chemicals with a specific activity of 80 Ci/mmol. 384-well streptavidin Flashplates were purchased from PerkinElmer.
Peptide was synthesized with a N-terminal linker-affinity tag motif and a C-terminal amide cap by 21st Century Biochemicals. The peptide was high-performance liquid chromatography (HPLC) purified to greater than 95% purity and confirmed by liquid chromatography mass spectrometry (LC-MS). The sequence was […](K-Biot)-amide. (SEQ ID No: 3)
Full length SMYD2 (NP 064582.2) was cloned into a pFastbac-Htb-lic vector with an N-terminal His6 tag and FLAG tag, preceded by a TEV protease cleavage site. The protein was expressed in Sf9 insect cells. Cells were resuspended in lysis buffer (25 mM HEPES-NaOH, pH 7.5, 200 mM NaCl, 5% glycerol, and 5 mM β-ME) and lysed by sonication. The protein was purified by Ni-NTA (Qiagen), followed by TEV cleavage to remove the His6 tag, subtractive Ni-NTA (Qiagen), and gel filtration chromatography using an […] (GE Healthcare). Purified protein was stored in 20 mM Tris-HCl, pH 8.0, 100 mM NaCl, and 1 mM TCEP.
The assays were all performed in a buffer consisting of 20 mM Bicine (pH=7.6), 1 mM TCEP, 0.005% Bovine Skin Gelatin, and 0.002% Tween20, prepared on the day of use. Compounds in 100% DMSO (1 ul) were spotted into a polypropylene 384-well V-bottom plates (Greiner) using a Platemate Plus outfitted with a 384-channel head (Thermo Scientific). DMSO (1 ul) was added to Columns 11, 12, 23, 24, rows A-H for the maximum signal control and 1 ul of SAH, a known product and inhibitor of SMYD2, was added to columns 11, 12, 23, 24, rows I-P for the minimum signal control. A cocktail (40 ul) containing the SMYD2 enzyme was added by Multidrop Combi (Thermo-Fisher). The compounds were allowed to incubate with SMYD2 for 30 min at room temperature, then a cocktail (10 ul) containing ^3H-SAM and peptide was added to initiate the reaction (final volume=51 ul). The final concentrations of the components were as follows: SMYD2 was 1.5 nM, ^3H-SAM was 10 nM, and peptide was 60 nM, SAH in the minimum signal control wells was 1000 uM, and the DMSO concentration was 2%. The assays were stopped by the addition of non-radioactive SAM (10 ul) to a final concentration of 600 uM, which dilutes the ^3H-SAM to a level where its incorporation into the peptide substrate is no longer detectable. 50 ul of the reaction in the 384-well polypropylene plate was then transferred to a 384-well Flashplate and the biotinylated peptides were allowed to bind to the streptavidin surface for at least 1 hour before being washed three times with 0.1% Tween20 in a Biotek ELx405 plate washer. The plates were then read in a PerkinElmer TopCount plate reader to measure the quantity of ^3H-labeled peptide bound to the Flashplate surface, measured as disintegrations per minute (dpm) or alternatively, referred to as counts per minute (cpm).
Where dpm=disintegrations per minute, cmpd=signal in assay well, and min and max are the respective minimum and maximum signal controls.
Where top and bottom are the normally allowed to float, but may be fixed at 100 or 0 respectively in a 3-parameter fit. The Hill Coefficient normally allowed to float but may also be fixed at 1 in a 3-parameter fit. I is the compound concentration.
SMYD2 biochemical assay data for representative Compounds of the Disclosure are presented in Tables 1-3 in the column titled “SMYD2 Biochem IC50 (μM).”

T1 sequence (Q9NRG4 whole entry): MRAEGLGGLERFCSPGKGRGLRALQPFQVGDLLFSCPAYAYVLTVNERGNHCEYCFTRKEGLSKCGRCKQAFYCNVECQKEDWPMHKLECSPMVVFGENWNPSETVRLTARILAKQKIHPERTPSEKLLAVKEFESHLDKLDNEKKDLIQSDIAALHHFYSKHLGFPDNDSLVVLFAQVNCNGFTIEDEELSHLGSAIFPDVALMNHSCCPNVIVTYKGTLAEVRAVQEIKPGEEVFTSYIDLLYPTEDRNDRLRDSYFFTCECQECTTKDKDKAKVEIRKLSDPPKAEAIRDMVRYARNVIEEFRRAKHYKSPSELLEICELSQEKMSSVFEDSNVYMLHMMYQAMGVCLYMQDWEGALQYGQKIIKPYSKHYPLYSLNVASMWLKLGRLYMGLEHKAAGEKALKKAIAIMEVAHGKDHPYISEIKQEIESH

SMILES	IC50 [µM]
O=C(N[C@@H]1CN(C2CC2)C[C@@H]1CO)c1cc(C2CC2)on1 (racemic) [Cpd. No. 48, (±)-cis-5-cyclopropyl-N-(1-cyclopropyl-4-(hydroxymethyl)pyrrolidin-3-yl)isoxazole-3-carboxamide]	8.46
C[C@H]1CNC[C@H]1NC(=O)c1cc(C2CC2)on1 (racemic) [compound 38, (±)-cis-5-cyclopropyl-N-(4-methylpyrrolidin-3-yl)isoxazole-3-carboxamide]	15.4
CN1C[C@@H](O)[C@H](NC(=O)c2cc(C3CC3)on2)C1 (racemic) [compound 40, (±)-trans-5-cyclopropyl-N-(-4-hydroxy-1-methylpyrrolidin-3-yl)isoxazole-3-carboxamide]	> 50
C[C@@H]1CNC[C@H]1NC(=O)c1cc(C2CC2)on1 (racemic) [compound 43, (±)-trans-5-cyclopropyl-N-(4-methyl-pyrrolidin-3-yl)isoxazole-3-carboxamide]	> 50
O=C(N[C@@H]1CN(C2CC2)C[C@H]1O)c1cc(C2CC2)on1 (racemic) [compound 47, (±)-trans-5-cyclopropyl-N-(1-cyclopropyl-4-hydroxypyrrolidin-3-yl)isoxazole-3-carboxamide]	> 50
O=C(N[C@@H]1C[C@H](CO)N(C2CC2)C1)c1cc(C2CC2)on1 (racemic) [compound 49, (±)-cis-5-cyclopropyl-N-(1-cyclopropyl-5-(hydroxy-methyl)pyrrolidin-3-yl)isoxazole-3-carboxamide]	> 50
C[C@H]1CN(C2CC2)C[C@@H]1NC(=O)c1cc(C2CC2)no1 (racemic) [compound 50, (±)-trans-3-cyclopropyl-N-(1-cyclopropyl-4-methylpyrrolidin-3-yl)isoxazole-5-carboxamide]	> 50
C[C@H]1CN(C2CC2)C[C@H]1NC(=O)c1cc(C2CC2)no1 (racemic) [compound 51, (±)-cis-3-cyclopropyl-N-(1-cyclopropyl-4-methylpyrrolidin-3-yl)isoxazole-5-carboxamide]	7.9
CCc1cc(C(=O)N[C@H]2CN(C3CC3)C[C@@H]2C)no1 (racemic) [compound 52, (±)-trans-N-(1-cyclopropyl-4-methylpyrrolidin-3-yl)-5-ethylisoxazole-3-carboxamide]	> 50

More lines, now with the values ahead:

IC50 [µM]	SMILES
19.2	C[C@H]1CN(C2CC2)C[C@H]1NC(=O)c1cc(C2CC2)on1 (racemic) [Cpd. No. 45, (±)-cis-5-cyclopropyl-N-(1-cyclopropyl-4-methylpyrrolidin-3-yl)isoxazole-3-carboxamide]
2.75	C[C@@H]1CN(C2CC2)C[C@H]1NC(=O)c1cc(C2CC2)on1 (racemic) [Cpd. No. 46, (±)-trans-5-cyclopropyl-N-(1-cyclopropyl-4-methylpyrrolidin-3-yl)isoxazole-3-carboxamide]
33.6	C[C@@H]1CN(C)C[C@H]1NC(=O)c1cc(C2CC2)on1 (racemic) [compound 39]
4.6	C[C@H]1CN(C)C[C@H]1NC(=O)c1cc(C2CC2)on1 (racemic) [compound 44]
> 50	C[C@H]1CN(C2CC2)C[C@@H]1NC(=O)c1cc(C2CCCC2)on1 (racemic) [compound 53, (±)-trans-5-cyclopentyl-N-(1-cyclopropyl-4-methylpyrrolidin-3-yl)isoxazole-3-carboxamide]
> 50	C[C@H]1CN(C2CC2)C[C@H]1NC(=O)c1cc(C2CCCC2)on1 (racemic) [compound 54, (±)-cis-5-cyclopentyl-N-(1-cyclopropyl-4-methylpyrrolidin-3-yl)isoxazole-3-carboxamide]

Same assay, conditions: Table 2; average of n = 1 to n = 50; read-out: SMYD2 Biochem IC50

SMILES	IC50 [µM]
C[C@H]1C[C@@H](NC(=O)c2cc(C3CC3)on2)CN1 (racemic) [compound 63, (±)-cis 5-cyclopropyl-N-(5-methylpyrrolidin-3-yl)isoxazole-3-carboxamide]	> 50
C[C@H]1C[C@@H](NC(=O)c2cc(C3CC3)on2)CN1C (racemic) [compound 64, (±)-cis-5-cyclopropyl-N-(1,5-dimethylpyrrolidin-3-yl)isoxazole-3-carboxamide]	> 50
C[C@@H]1CN(C(=O)CN)C[C@@H]1NC(=O)c1cc(C2CC2)on1 (racemic) [compound 68, (±)-cis-5-cyclopropyl-N-(1-glycyl-4-methylpyrrolidin-3-yl)isoxazole-3-carboxamide]	> 50

Now from value to molecule:

IC50 [µM]	SMILES
2.4	CC(C)N1C[C@H](C)[C@H](NC(=O)c2cc(C3CC3)on2)C1 (racemic) [compound 65, (±)-cis-5-cyclopropyl-N-(1-isopropyl-4-methylpyrrolidin-3-yl)isoxazole-3-carboxamide]
> 50	C[C@H]1CN(S(C)(=O)=O)C[C@H]1NC(=O)c1cc(C2CC2)on1 (racemic) [compound 66, (±)-cis-5-cyclopropyl-N-(4-methyl-1-(methyl-sulfonyl)pyrrolidin-3-yl)isoxazole-3-carboxamide]
> 50	C[C@@H]1CN(S(=O)(=O)C2CCNCC2)C[C@@H]1NC(=O)c1cc(C2CC2)on1 (racemic) [compound 67, (±)-cis 5-cyclopropyl-N-(4-methyl-1-(piperidin-4-ylsulfonyl)pyrrolidin-3-yl)isoxazole-3-carboxamide]
> 50	C[C@@H]1CN(C(=O)CO)C[C@@H]1NC(=O)c1cc(C2CC2)on1 (racemic) [compound 69, (±)-cis-5-cyclopropyl-N-(1-(2-hydroxyacetyl)-4-methylpyrrolidin-3-yl)isoxazole-3-carboxamide]
> 50	C[C@H]1CN(C(=O)C2CCNCC2)C[C@H]1NC(=O)c1cc(C2CC2)on1 (racemic) [compound 70, (±)-cis-5-cyclopropyl-N-(4-methyl-1-(piperidine-4-carbonyl)pyrrolidin-3-yl)isoxazole-3-carboxamide]
> 50	C[C@@H]1CN(C(=O)CC2CCNCC2)C[C@@H]1NC(=O)c1cc(C2CC2)on1 (racemic) [compound 71, (±)-cis-5-cyclopropyl-N-(4-methyl-1-(2-(piperidin-4-yl)acetyl)pyrrolidin-3-yl)isoxazole-3-carboxamide]
18.4	C[C@@H]1CN(C2CCCCC2)C[C@@H]1NC(=O)c1cc(C2CC2)on1 (racemic) [compound 72, (±)-cis-N-(1-cyclohexyl-4-methylpyrrolidin-3-yl)-5-cyclopropylisoxazole-3-carboxamide]
40.7	C[C@@H]1CN(C2CCOCC2)C[C@@H]1NC(=O)c1cc(C2CC2)on1 (racemic) [compound 73, (±)-cis-5-cyclopropyl-N-(4-methyl-1-(tetrahydro-2H-pyran-4-yl)pyrrolidin-3-yl)isoxazole-3-carboxamide]
14	C[C@@H]1CN(C2CCS(=O)(=O)CC2)C[C@@H]1NC(=O)c1cc(C2CC2)on1 (racemic) [compound 74, (±)-cis-5-cyclopropyl-N-(1-(1,1-dioxidotetrahydro-2H-thiopyran-4-yl)-4-methylpyrrolidin-3-yl)isoxazole-3-carboxamide]
5	C[C@H]1CN(C2CCCC2)C[C@H]1NC(=O)c1cc(C2CC2)on1 (racemic) [compound 75, (±)-cis-N-(1-cyclopentyl-4-methylpyrrolidin-3-yl)-5-cyclopropylisoxazole-3-carboxamide]
> 50	C[C@H]1CN(CCS(C)(=O)=O)C[C@H]1NC(=O)c1cc(C2CC2)on1 (racemic) [compound 77, (±)-cis-cyclopropyl-N-((3S)-4-methyl-1-(2-(methyl-sulfonyl)ethyl)pyrrolidin-3-yl)isoxazole-3-carboxamide]
